Publication PMC7357490, “Ancestral Resurrection and Directed Evolution of Fungal Mesozoic Laccases” (Applied and Environmental Microbiology, 2020)
Read-outs that look alike come from different tables or passages of the source.

How the values were obtained:
LacAnc100 [1] = test: spectrophotometric steady-state kinetics, […] nm; type: biochemical, synthetic construct; details: room temperature; 100 mM sodium phosphate/citrate pH 5.0; air O2 as co-substrate
LacAnc98 [2] = test: spectrophotometric steady-state kinetics, […] nm; type: biochemical, synthetic construct; details: room temperature; 100 mM sodium phosphate/citrate pH 5.0; air O2 as co-substrate
OB-1 [3] = molecular target: T1, OB-1 (basidiomycete PM1, UniProt Q12571, V183A/H229Y/S245G/A260P/D302E/S447N/A482T, form not given); test: spectrophotometric steady-state kinetics, […] nm; type: biochemical; details: room temperature; 100 mM sodium phosphate/citrate pH 5.0; air O2 as co-substrate
T1 construct: N-terminal extension from leader processing (EAEA site) possible
T1 sequence (Q12571 entry or part of it V183A/H229Y/S245G/A260P/D302E/S447N/A482T, form open): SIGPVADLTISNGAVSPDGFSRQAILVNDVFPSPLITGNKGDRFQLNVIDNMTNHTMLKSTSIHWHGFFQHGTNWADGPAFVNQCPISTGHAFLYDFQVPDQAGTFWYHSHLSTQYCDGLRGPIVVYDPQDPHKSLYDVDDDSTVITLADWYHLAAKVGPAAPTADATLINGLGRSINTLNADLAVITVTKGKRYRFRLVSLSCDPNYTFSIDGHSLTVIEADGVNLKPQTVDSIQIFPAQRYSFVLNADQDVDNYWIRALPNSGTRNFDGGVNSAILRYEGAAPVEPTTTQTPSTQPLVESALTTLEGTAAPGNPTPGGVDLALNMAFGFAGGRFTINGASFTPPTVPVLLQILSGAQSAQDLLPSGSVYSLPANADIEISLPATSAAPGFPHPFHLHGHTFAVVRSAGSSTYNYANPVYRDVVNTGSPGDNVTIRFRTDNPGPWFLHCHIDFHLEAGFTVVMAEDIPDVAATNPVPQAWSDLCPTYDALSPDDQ

LacAnc98 [4] = test: spectrophotometric steady-state kinetics, […] nm; type: biochemical, synthetic construct; details: room temperature; 100 mM sodium phosphate/citrate pH 5.0; air O2 as co-substrate; remark: listed apart in the source
LacAnc100 [5] = test: spectrophotometric steady-state kinetics, […] nm; type: biochemical, synthetic construct; details: room temperature; 100 mM sodium phosphate/citrate pH 5.0; air O2 as co-substrate; remark: listed apart in the source
OB-1 [6] = molecular target: T1, OB-1; test: spectrophotometric steady-state kinetics, […] nm; type: biochemical; details: room temperature; 100 mM sodium phosphate/citrate pH 5.0; air O2 as co-substrate; remark: listed apart in the source
LacAnc98 [7] = details: read-out: LacAnc98; room temperature; 100 mM sodium phosphate/citrate pH 4.0; air O2 as co-substrate
LacAnc100 [8] = details: read-out: LacAnc100; room temperature; 100 mM sodium phosphate/citrate pH 4.0; air O2 as co-substrate
LacAnc100 [9] = test: spectrophotometric steady-state kinetics, […] nm; type: biochemical, synthetic construct; details: room temperature; 100 mM sodium phosphate/citrate pH 5.0; air O2 as co-substrate; remark: listed apart in the source
LacAnc98 [10] = test: spectrophotometric steady-state kinetics, […] nm; type: biochemical, synthetic construct; details: room temperature; 100 mM sodium phosphate/citrate pH 5.0; air O2 as co-substrate; remark: listed apart in the source
OB-1 [11] = molecular target: T1, OB-1; test: spectrophotometric steady-state kinetics, […] nm; type: biochemical; details: room temperature; 100 mM sodium phosphate/citrate pH 5.0; air O2 as co-substrate; remark: listed apart in the source

Compound `COc1cccc(OC)c1O` [DMP] has a Km (LacAnc100 [1]) of 500 ± 20 µM, a Km (LacAnc98 [2]) of 420 ± 20 µM and a Km (OB-1 [3]) of 150 ± 10 µM.
In the case of `COc1cc(/C=C/C(=O)O)cc(OC)c1O` [Sinapic acid], the Km (LacAnc98 [4]) is reported as 230 ± 40 µM, the Km (LacAnc100 [5]) is reported as 330 ± 70 µM and the Km (OB-1 [6]) is reported as 320 ± 20 µM.
With `CCn1c(=NN=c2sc3cc(S(=O)(=O)O)ccc3n2CC)sc2cc(S(=O)(=O)O)ccc21` [ABTS] the Km (LacAnc98 [7]) was 69 ± 2 µM and the Km (LacAnc100 [8]) was 60 ± 1 µM.
`COc1ccccc1O` [Guaiacol] showed a Km (LacAnc100 [9]) of 6700 ± 700 µM, a Km (LacAnc98 [10]) of 8700 ± 300 µM and a Km (OB-1 [11]) of 2600 ± 400 µM.
